Measurements published in patent US8383629B2, “Inhibitors of 11β-hydroxysteroid dehydrogenase type 1” (Vitae Pharmaceuticals, Inc., priority 2008, dated 2013).

Target: T1, human 11β-HSD1 (Homo sapiens, UniProt P28845)
T1 construct: expressed in transfected cells; host or cells: CHO cells (microsomes)
Experiment: Inhibition of microsomal preparation of 11β-HSD1 (SPA, Biological Test Example 1)
Type: biochemical
Settings: for inhibition at 0.111 µM: 111 nM; for IC50: microsomes from CHO cells overexpressing human 11β-HSD1, read-out: IC50 Range; for inhibition at 0.1 µM: 100 nM
Experimental: The inhibition of microsomal preparation of 11β-HSD1 by compounds of the invention was measured essentially as previously described (K. Solly, S. S. Mundt, H. J. Zokian, G. J. Ding, A. Hermanowski-Vosatka, B. Strulovici, and W. Zheng, High-Throughput Screening of 11-Beta-Hydroxysteroid Dehydrogenase Type 1 in Scintillation Proximity Assay Format. Assay Drug Dev Technol 3 (2005) 377-384). All reactions were carried out at rt in 96 well clear flexible PET Microbeta plates (PerkinElmer). The assay begins by dispensing 49 μl of substrate solution (50 mM HEPES, pH 7.4, 100 mM KCl, 5 mM NaCl, 2 mM MgCl2, 2 mM NADPH and 160 nM [^3H]cortisone (1 Ci/mmol)) and mixing in 1 μL of the test compounds in DMSO previously diluted in half-log increments (8 points) starting at 0.1 mM. After a 10 minute pre-incubation, 50 μL of enzyme solution containing microsomes isolated from CHO cells overexpressing human 11β-HSD1 (10-20 μg/ml of total protein) was added, and the plates were incubated for 90 minutes at rt. The reaction was stopped by adding 50 μl of the SPA beads suspension containing 10 μM 18β-glycyrrhetinic acid, 5 mg/ml protein A coated YSi SPA beads (GE Healthcare) and 3.3 μg/ml of anti-cortisol antibody (East Coast Biologics) in Superblock buffer (Bio-Rad). The plates were shaken for 120 minutes at rt, and the SPA signal corresponding to [^3H]cortisol was measured on a Microbeta plate reader.

T1 sequence (P28845 whole entry): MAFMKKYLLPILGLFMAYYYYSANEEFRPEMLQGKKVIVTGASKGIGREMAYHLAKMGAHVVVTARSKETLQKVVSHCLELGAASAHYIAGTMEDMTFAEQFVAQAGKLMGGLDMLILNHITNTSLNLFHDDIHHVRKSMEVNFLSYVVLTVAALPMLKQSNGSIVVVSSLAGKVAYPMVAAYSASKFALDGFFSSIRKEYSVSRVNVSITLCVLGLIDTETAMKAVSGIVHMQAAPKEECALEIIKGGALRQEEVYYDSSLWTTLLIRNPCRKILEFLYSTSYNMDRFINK

inhibition at 0.111 µM [%] | IC50 [nM] | inhibition at 0.1 µM [%] | Compound
87.4 | < 100 | 97.1 | O=C(O)CC1CC2(CCN(C(=O)CCc3ccccc3C(F)(F)F)CC2)c2c(Br)cccc21 (stereo not shown) [EXAMPLE 58, 2-(7-bromo-1′-(3-(2-(trifluoromethyl)phenyl)propanoyl)-2,3-dihydrospiro[indene-1,4′-piperidine]-3-yl)acetic acid]
64.4 | < 100 | – | CN(Cc1ccccc1C(F)(F)F)C(=O)N1CCC2(CC1)CC(CC(=O)O)c1cccc(Br)c12 (stereo not shown) [EXAMPLE 102, 2-(7-bromo-1′-(methyl(2-(trifluoromethyl)benzyl)carbamoyl)-2,3-dihydrospiro[indene-1,4′-piperidine]-3-yl)acetic acid]
78.6 | < 100 | – | NC1CC2(CCN(C(=O)Cc3ccccc3C(F)(F)F)CC2)c2c(Br)cccc21 (racemic) [EXAMPLE 46, (±)-1-(3-amino-7-bromo-2,3-dihydrospiro[indene-1,4′-piperidine]-1′-yl)-2-(2-(trifluoromethyl)phenyl)ethanone]
57.2 | < 100 | – | Cc1ccccc1CNC(=O)N1CCC2(CC1)CC(CC(=O)O)c1cccc(Br)c12 (stereo not shown) [EXAMPLE 87, 2-(7-bromo-1′-(2-methylbenzylcarbamoyl)-2,3-dihydrospiro[indene-1,4′-piperidine]-3-yl)acetic acid]
92.1 | < 100 | – | NC1CC2(CCN(C(=O)CCc3ccccc3C(F)(F)F)CC2)c2c(Br)cccc21 (stereo not shown) [EXAMPLE 66, 1-(3-amino-7-bromo-2,3-dihydrospiro[indene-1,4′-piperidine]-1′-yl)-3-(2-(trifluoromethyl)phenyl)propan-1-one]
87.7 | < 100 | – | Cc1ccc2c(c1)C1(CCN(C(=O)/C=C/c3ccccc3C(F)(F)F)CC1)CC2CC(=O)O (racemic) [EXAMPLE 10, (±)-(E)-2-(6-methyl-1′-(3-(2-(trifluoromethyl)phenyl)acryloyl)-2,3-dihydrospiro[indene-1,4′-piperidine]-3-yl)acetic acid]
89.4 | < 100 | 94.9 | CCOC(=O)CC1CC2(CCN(C(=O)/C=C/c3ccccc3C(F)(F)F)CC2)c2c(Br)cccc21 (racemic) [EXAMPLE 1, (±)-(E)-ethyl 2-(7-bromo-1′-(3-(2-(trifluoromethyl)phenyl)acryloyl)-2,3-dihydrospiro[indene-1,4′-piperidine]-3-yl)acetate]
95.1 | < 100 | – | NC(=O)CC1CC2(CCN(C(=O)CCc3ccccc3C(F)(F)F)CC2)c2c(Cl)cccc21 (stereo not shown) [EXAMPLE 80, 2-(7-chloro-1′-(3-(2-(trifluoromethyl)phenyl)propanoyl)-2,3-dihydrospiro[indene-1,4′-piperidine]-3-yl)acetamide]
5.6 | 100 to 1000 | – | CS(=O)(=O)c1ccccc1CNC(=O)N1CCC2(CC1)CC(CC(=O)O)c1cccc(Br)c12 (stereo not shown) [EXAMPLE 97, 2-(7-bromo-1′-(2-(methylsulfonyl)benzylcarbamoyl)-2,3-dihydrospiro[indene-1,4′-piperidine]-3-yl)acetic acid]
– | < 100 | 61.2 | O=C(O)CC1CC2(CCN(C(=O)Cc3ccccc3OC(F)(F)F)CC2)c2c(Cl)cccc21 (stereo not shown) [EXAMPLE 52, 2-(7-chloro-1′-(2-(2-(trifluoromethoxy)phenyl)acetyl)-2,3-dihydrospiro[indene-1,4′-piperidine]-3-yl)acetic acid]
– | < 100 | 76.8 | O=C(O)CC1CC2(CCN(C(=O)Cc3ccccc3C(F)(F)F)CC2)c2c(Cl)cccc21 (stereo not shown) [EXAMPLE 51, 2-(7-chloro-1′(2-(2-(trifluoromethyl)phenyl)acetyl)-2,3-dihydrospiro[indene-1,4′-piperidine]-3-yl)acetic acid]
42.6 | 100 to 1000 | – | CCOC(=O)CC1CC2(CCN(C(=O)N(C)Cc3ccccc3C(F)(F)F)CC2)c2c(Br)cccc21 (stereo not shown) [EXAMPLE 101, Ethyl 2-(7-bromo-1′-(methyl(2-(trifluoromethyl)benzyl)carbamoyl)-2,3-dihydrospiro[indene-1,4′-piperidine]-3-yl)acetate]
79.4 | < 100 | – | CCOC(=O)CC1CC2(CCN(C(=O)N(C)Cc3ccccc3F)CC2)c2c(Br)cccc21 (stereo not shown) [EXAMPLE 103, Ethyl 2-(7-bromo-1′-((2-fluorobenzyl)(methyl)carbamoyl)-2,3-dihydrospiro[indene-1,4′-piperidine]-3-yl)acetate]

Second part, the molecule before the results:

Compound | inhibition at 0.111 µM [%] | IC50 [nM] | inhibition at 0.1 µM [%]
CNCCN(C)C(=O)CC1CC2(CCN(C(=O)/C=C/c3ccccc3C(F)(F)F)CC2)c2c(Cl)cccc21 (racemic) [EXAMPLE 7, (±)-(E)-2-(7-chloro-1′-(3-(2-(trifluoromethyl)phenyl)acryloyl)-2,3-dihydrospiro[indene-1,4′-piperidine]-3-yl)-N-methyl-N-(2-(methylamino)ethyl)acetamide] | 87.3 | < 100 | –
CS(=O)(=O)N1Cc2ccccc2C2(CCN(C(=O)CCc3ccccc3C(F)(F)F)CC2)C1 [EXAMPLE 60, 1-(2-(methylsulfonyl)-2,3-dihydro-1H-spiro[isoquinoline-4,4′-piperidine]-1′-yl)-3-(2-(trifluoromethyl)phenyl)propan-1-one] | 92.6 | < 100 | –
O=C1CC2(CCN(C(=O)NCc3ccccc3OC(F)(F)F)CC2)c2c(Br)cccc21 [EXAMPLE 99, 7-bromo-3-oxo-N-(2-(trifluoromethoxy)benzyl)-2,3-dihydrospiro[indene-1,4′-piperidine]-1′-carboxamide] | 75.6 | < 100 | –
CN1C(=O)c2cccc(Cl)c2C12CCN(C(=O)CCc1ccccc1C(F)(F)F)CC2 [EXAMPLE 61, 7-chloro-2-methyl-1′-(3-(2-(trifluoromethyl)phenyl)propanoyl)spiro[isoindoline-1,4′-piperidin]-3-one] | 96.7 | < 100 | 93.3
O=C(O)CC1CC2(CCN(C(=O)Cc3ccc(F)cc3C(F)(F)F)CC2)c2c(Cl)cccc21 (stereo not shown) [EXAMPLE 53, 2-(7-chloro-1′(2-(4-fluoro-2-(trifluoromethyl)phenyl)acetyl)-2,3-dihydrospiro[indene-1,4′-piperidine]-3-yl)acetic acid] | – | < 100 | 67.2
CN1C(=O)C2(CCN(C(=O)/C=C/c3ccccc3C(F)(F)F)CC2)c2cc(C(=O)O)ccc21 [EXAMPLE 33, (E)-1-methyl-2-oxo-1′-(3-(2-(trifluoromethyl)phenyl)acryloyl)spiro[indoline-3,4′-piperidine]-5-carboxylic acid] | 31.5 | 100 to 1000 | –
CCN1C(=O)C2(CCN(C(=O)CCc3ccccc3C(F)(F)F)CC2)c2cc(C(=O)OC)ccc21 [EXAMPLE 78, Methyl 1-ethyl-2-oxo-1′-(3-(2-(trifluoromethyl)phenyl)propanoyl)spiro[indoline-3,4′-piperidine]-5-carboxylate] | 52.4 | < 100 | –
COc1ccc2c(c1)CCNC21CCN(C(=O)Cc2ccccc2C(F)(F)F)CC1 [EXAMPLE 44, 1-(6-methoxy-3,4-dihydro-2H-spiro[isoquinoline-1,4′-piperidine]-1′-yl)-2-(2-(trifluoromethyl)phenyl)ethanone] | 69.9 | < 100 | –
CN1C(=O)C2(CCN(C(=O)CCc3ccccc3C(F)(F)F)CC2)c2cc(C#N)ccc21 [EXAMPLE 79, 1-methyl-2-oxo-1′-(3-(2-(trifluoromethyl)phenyl)propanoyl)spiro[indoline-3,4′-piperidine]-5-carbonitrile] | 51.4 | 100 to 1000 | –
CNC(=O)NC1CC2(CCN(C(=O)/C=C/c3ccccc3C(F)(F)F)CC2)c2c(Br)cccc21 (racemic) [EXAMPLE 19, (±)-(E)-1-(7-bromo-1′-(3-(2-(trifluoromethyl)phenyl)acryloyl)-2,3-dihydrospiro[indene-1,4′-piperidine]-3-yl)-3-methylurea] | – | < 100 | 98.1
Cc1ccccc1CNC(=O)N1CCC2(CC1)CC(CC(=O)N1CCN(C(=O)OC(C)(C)C)CC1)c1cccc(Br)c12 (stereo not shown) [EXAMPLE 88, tert-butyl 4-(2-(7-bromo-1′-(2-methylbenzylcarbamoyl)-2,3-dihydrospiro[indene-1,4′-piperidine]-3-yl)acetyl)piperazine-1-carboxylate] | 66.2 | < 100 | –
O=C1NC2(CCN(C(=O)/C=C/c3ccccc3C(F)(F)F)CC2)c2c(Br)cccc21 [EXAMPLE 28, (E)-7-bromo-1′-(3-(2-(trifluoromethyl)phenyl)acryloyl)spiro[isoindoline-1,4′-piperidin]-3-one] | 92.7 | < 100 | –
CC1(C)NC(=O)C2(CCN(C(=O)/C=C/c3ccccc3C(F)(F)F)CC2)c2ccccc21 [EXAMPLE 43, (E)-1,1-dimethyl-1′-(3-(2-(trifluoromethyl)phenyl)acryloyl)-1H-spiro[isoquinoline-4,4′-piperidin]-3(2H)-one] | – | < 100 | 90.6
